These results are taken from PubChem BioAssay (NCI).

Some test systems named below: U251 CNS; BT-549 breast; SR leukemia; SN12C renal; SW-620 colon; HOP-92 NSCLC; NCI/ADR-RES ovarian; UACC-62 melanoma; MALME-3M melanoma; UO-31 renal.
Holding throughout (assay): growth of human tumour cells (NCI), 48 h

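Interpolation was linear, between the two tested concentrations surrounding the appropriate level; five concentrations were tested over 48 hours in 96-well plates. GI50 is the concentration that inhibits growth by half. TGI denotes the concentration required for complete inhibition of growth.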

Regarding `CCCN1CCN(c2ccc3nc(-c4ccc5nc(-c6ccc(OCC)c(OCC)c6)[nH]c5c4)[nH]c3c2)CC1`, the GI50 in the test on U251 CNS is 0.398 µM; in the test on BT-549 breast it was 1.13 µM; with SR leukemia it was 0.263 µM; in the test on SN12C renal it was 0.526 µM; with SW-620 colon it was 0.207 µM; in the test with HOP-92 NSCLC it was 1 µM. The GI50 in the test on NCI/ADR-RES ovarian was over 100 µM; with UACC-62 melanoma, 0.348 µM; in the test with MALME-3M melanoma it was 0.0647 µM; in the test with UO-31 renal it was 1.58 µM. Further, the TGI with U251 CNS is 1.55 µM; with BT-549 breast, 2.61 µM; in the test on SR leukemia, 0.896 µM; in the test on SN12C renal, 2.14 µM; in the test with SW-620 colon it was 0.808 µM; in the test on HOP-92 NSCLC it was 5.5 µM. In addition, the TGI in the test with NCI/ADR-RES ovarian was over 100 µM; in the test on UACC-62 melanoma it was 1.87 µM; with MALME-3M melanoma, 1.19 µM; in the test on UO-31 renal it was 3.32 µM.
On to `O=C(Nc1ccc(Br)cc1F)c1cc(Br)ccc1O`, for which the GI50 in the test with U251 CNS was 0.64 µM; with BT-549 breast, 0.403 µM; with SR leukemia, 2.07 µM; with SN12C renal, 0.519 µM; with SW-620 colon, 1.14 µM; in the test with HOP-92 NSCLC, 0.177 µM. Moreover, the GI50 with NCI/ADR-RES ovarian was 0.876 µM; in the test with UACC-62 melanoma, 0.303 µM; in the test with MALME-3M melanoma, 0.32 µM; in the test with UO-31 renal, 0.4 µM. Besides, the TGI stood at 13.3 µM in the test on U251 CNS; 3.25 µM in the test with BT-549 breast; 11.8 µM in the test with SR leukemia; 6.39 µM in the test on SN12C renal; 7.42 µM in the test on SW-620 colon; 0.651 µM in the test with HOP-92 NSCLC. The TGI was 5.44 µM in the test on NCI/ADR-RES ovarian, 1.23 µM in the test on UACC-62 melanoma, 1.82 µM in the test with MALME-3M melanoma and 2.8 µM in the test on UO-31 renal.
`O=CC1(C2(C=O)c3ccccc3-c3ccccc32)c2ccccc2-c2ccccc21`: the GI50 was 2.23 µM with U251 CNS; 2.01 µM in the test on BT-549 breast; 1.65 µM in the test on SR leukemia; 2.34 µM with SN12C renal; 1.8 µM in the test on SW-620 colon; 1.58 µM in the test with HOP-92 NSCLC. Further, the GI50 was 2.54 µM in the test with NCI/ADR-RES ovarian, 2.69 µM in the test with UACC-62 melanoma, 2.68 µM with MALME-3M melanoma and 1.92 µM in the test on UO-31 renal. Moreover, the TGI stood at 5.6 µM in the test on U251 CNS; 4.84 µM in the test with BT-549 breast; 3.43 µM in the test on SR leukemia; 5.83 µM in the test on SN12C renal; 3.53 µM in the test with SW-620 colon; 3.83 µM in the test on HOP-92 NSCLC. The TGI came to 6.99 µM in the test with NCI/ADR-RES ovarian, 6.25 µM in the test on UACC-62 melanoma, 5.94 µM in the test on MALME-3M melanoma and 4.32 µM with UO-31 renal.
In the case of `CC[C@]12CCCN3CC[C@]4(C(=C(C(=O)OC)C1)Nc1ccccc14)[C@@H]32`, the GI50 is 15.1 µM in the test on U251 CNS; 19.8 µM with BT-549 breast; 17.2 µM with SR leukemia; 16.4 µM in the test on SN12C renal; 16.2 µM with SW-620 colon; 7.09 µM in the test with HOP-92 NSCLC. The GI50 in the test on NCI/ADR-RES ovarian is 14.3 µM; with UACC-62 melanoma, 11.4 µM; in the test with MALME-3M melanoma, 13 µM; in the test on UO-31 renal, 10.9 µM. The TGI in the test with U251 CNS was 29.6 µM; in the test on BT-549 breast, 46.7 µM; with SR leukemia, over 100 µM; in the test on SN12C renal, 33.2 µM; with SW-620 colon, 33.3 µM; with HOP-92 NSCLC, 24.6 µM. For the same compound, the TGI was determined as 33.4 µM with NCI/ADR-RES ovarian, 31 µM with UACC-62 melanoma, 29.7 µM with MALME-3M melanoma and 24.1 µM with UO-31 renal.
For `COc1cc(C2C(C#N)=C(N)Oc3cc(O)ccc32)cc(OC)c1OC` (stereo not given), the GI50 in the test on U251 CNS was 0.439 µM; in the test on BT-549 breast, 0.419 µM; in the test on SR leukemia, 0.335 µM; in the test on SN12C renal it was 0.827 µM; in the test on SW-620 colon, 0.361 µM; in the test on HOP-92 NSCLC it was 0.301 µM. The GI50 was 1.72 µM in the test on NCI/ADR-RES ovarian, 0.407 µM with UACC-62 melanoma, 0.644 µM in the test on MALME-3M melanoma and 3.84 µM in the test with UO-31 renal. The TGI is over 100 µM with U251 CNS; 33.3 µM in the test with BT-549 breast; over 100 µM with SR leukemia; over 100 µM in the test on SN12C renal; over 100 µM in the test on SW-620 colon; 97.5 µM in the test with HOP-92 NSCLC. Moreover, the TGI in the test on NCI/ADR-RES ovarian, with UACC-62 melanoma, with MALME-3M melanoma and in the test on UO-31 renal was over 100 µM throughout.
On to `COc1cc(NC(N)=NCCC(C)(C)c2ccc(C(F)(F)F)cc2)ncc1C#N`, for which the GI50 in the test on U251 CNS is 1.67 µM; in the test with BT-549 breast, 1.74 µM; in the test on SR leukemia, 1.7 µM; with SN12C renal, 1.47 µM; with SW-620 colon, 2.01 µM; with HOP-92 NSCLC it was 1.3 µM. Moreover, the GI50 in the test on NCI/ADR-RES ovarian is 1.8 µM; in the test on UACC-62 melanoma, 1.71 µM; in the test with MALME-3M melanoma it was 1.82 µM; in the test with UO-31 renal, 1.34 µM. The TGI is 3.05 µM in the test with U251 CNS; 3.21 µM in the test with BT-549 breast; 4.06 µM in the test with SR leukemia; 2.82 µM with SN12C renal; 4.14 µM with SW-620 colon; 2.74 µM in the test on HOP-92 NSCLC. The TGI in the test on NCI/ADR-RES ovarian came to 3.29 µM; in the test on UACC-62 melanoma, 3.1 µM; in the test on MALME-3M melanoma, 3.47 µM; in the test with UO-31 renal it was 2.66 µM.
Regarding `COc1ccc(CNc2nc(NCc3ccc(OC)cc3)c3n[nH]c(C(C)C)c3n2)cc1`, the GI50 in the test with U251 CNS is 4.22 µM; in the test on BT-549 breast, 3.47 µM; in the test with SR leukemia, 2.48 µM; with SN12C renal, 9.14 µM; in the test on SW-620 colon, 3.27 µM; in the test with HOP-92 NSCLC it was 9.48 µM. Also, the GI50 in the test on NCI/ADR-RES ovarian is 3.59 µM; with UACC-62 melanoma, 5.94 µM; with MALME-3M melanoma, 7.5 µM; with UO-31 renal it was 4.81 µM. Moreover, the TGI was 21.1 µM in the test with U251 CNS; 12.2 µM with BT-549 breast; 6.17 µM in the test with SR leukemia; 27.7 µM with SN12C renal; over 100 µM in the test with SW-620 colon; 37.4 µM in the test on HOP-92 NSCLC. Also, the TGI in the test on NCI/ADR-RES ovarian is 15.9 µM; in the test on UACC-62 melanoma it was 20 µM; with MALME-3M melanoma, over 100 µM; with UO-31 renal it was 15 µM.
